# Assay results: patent publication US20070123491A1, “Podophyllotoxin derivatives as igf-1r inhibitors” (BIOVITRUM AB, priority 2003, published 2007)
# Legend:
# [1] = system: fibroblast growth factor receptor (FGFR); assay: Tyrosine phosphorylation of FGFR in intact FM55 melanoma cells; assay type: cell-based, human; conditions: Experiment 3, 0.7 μM, 1 h, control = 100%
# Method: (§1) Cells were cultured to subconfluency in 6-cm plates, and then fresh medium containing 10% FBS and the desired compounds were added for 1 h. The cells were then lyzed and subjected to immunoprecipitation using specific antibodies. Immunoprecipitates were resolved by sodium dodecyl sulphate polyacrylamide gel electrophoresis (SDS-PAGE) and transferred to nitro-cellulose membranes and incubated with anti-phosphotyrosine antibody. Antibodies to actin (in cell extract) or IGF-1R beta subunit were used as loading controls. After detection the films were scanned for quantification.
# (§2) The isolated cells were then lyzed in 10 ml ice-cold PBSTDS containing protease inhibitors (Carlberg, M., et al., J Biol Chem 271:17453-17462, 1996). 50 μl protein A or G agarose was added in 1 ml sample and incubated for 15 min at 4° C. on an orbital shaker. […] The protein content was determined by a dye-binding assay with a reagent purchased from Bio-Rad. […]
# (§3) Following SDS-PAGE the proteins were transferred overnight to nitro-cellulose membranes (Hybond, Amersham, UK) and then blocked for 1 h at room temperature in a solution of 4% skimmed milk powder and 0.02% Tween 20 in PBS, pH 7.5. […] After another 3 washes the membranes were incubated with Streptavidin-labelled horseradish peroxidase for 30 min and then detected using Amersham ECL system (Amersham, UK). […]
# [2] = system: platelet-derived growth factor receptor (PDGFR); assay: Tyrosine phosphorylation of PDGFR in intact FM55 melanoma cells; assay type: cell-based, human; conditions: Experiment 3, 0.7 μM, 1 h, control = 100%
# Method: as §1, §2, §3
# [3] = molecular target: T1, epidermal growth factor receptor (EGFR) (Homo sapiens, UniProt P00533); assay: Tyrosine phosphorylation of EGFR in intact FM55 melanoma cells; assay type: cell-based; conditions: Experiment 3, 0.7 μM, 1 h, control = 100%
# T1 construct: endogenous in cells; host or cells: FM55 human melanoma cells
# T1 sequence (P00533 25-1210): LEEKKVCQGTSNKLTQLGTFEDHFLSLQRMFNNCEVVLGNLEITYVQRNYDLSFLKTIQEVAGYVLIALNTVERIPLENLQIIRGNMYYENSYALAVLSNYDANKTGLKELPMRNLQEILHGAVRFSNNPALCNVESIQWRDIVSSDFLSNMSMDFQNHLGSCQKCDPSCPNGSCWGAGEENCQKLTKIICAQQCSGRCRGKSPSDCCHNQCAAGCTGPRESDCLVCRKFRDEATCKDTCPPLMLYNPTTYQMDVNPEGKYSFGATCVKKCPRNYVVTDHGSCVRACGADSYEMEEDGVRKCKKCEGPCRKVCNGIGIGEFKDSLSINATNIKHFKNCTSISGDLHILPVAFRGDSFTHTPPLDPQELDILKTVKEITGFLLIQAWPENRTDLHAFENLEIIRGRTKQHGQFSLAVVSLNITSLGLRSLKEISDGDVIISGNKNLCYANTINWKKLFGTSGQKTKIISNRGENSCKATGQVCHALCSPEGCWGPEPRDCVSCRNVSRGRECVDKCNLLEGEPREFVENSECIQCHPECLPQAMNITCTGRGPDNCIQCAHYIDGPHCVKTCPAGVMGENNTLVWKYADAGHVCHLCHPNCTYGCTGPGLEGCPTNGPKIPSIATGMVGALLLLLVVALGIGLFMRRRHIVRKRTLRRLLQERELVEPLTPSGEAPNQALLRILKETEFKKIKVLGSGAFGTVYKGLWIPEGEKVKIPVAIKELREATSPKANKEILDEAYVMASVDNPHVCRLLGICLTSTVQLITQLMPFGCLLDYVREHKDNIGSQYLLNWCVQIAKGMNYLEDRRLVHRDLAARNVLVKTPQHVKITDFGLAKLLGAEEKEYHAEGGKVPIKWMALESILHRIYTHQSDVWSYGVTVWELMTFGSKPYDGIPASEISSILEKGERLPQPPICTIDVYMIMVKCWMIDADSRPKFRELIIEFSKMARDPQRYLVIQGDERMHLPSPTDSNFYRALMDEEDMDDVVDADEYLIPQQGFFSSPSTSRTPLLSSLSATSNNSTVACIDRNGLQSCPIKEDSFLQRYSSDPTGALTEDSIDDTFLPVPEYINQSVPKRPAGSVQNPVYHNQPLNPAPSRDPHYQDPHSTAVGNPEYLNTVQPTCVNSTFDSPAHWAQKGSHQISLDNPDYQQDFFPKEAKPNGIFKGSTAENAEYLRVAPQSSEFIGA
# Method: as §1, §2, §3
# insulin receptor (IR) = molecular target: T2, insulin receptor (IR) (Homo sapiens, UniProt P06213); assay: Tyrosine phosphorylation of IR in intact FM55 melanoma cells; assay type: cell-based; conditions: Experiment 3, 0.7 μM, 1 h, control = 100%
# T2 construct: endogenous in cells; host or cells: FM55 human melanoma cells
# Method: as §1, §2, §3
# [4] = system: insulin substrate-1 (IRS-1); assay: Tyrosine phosphorylation of IRS-1 in intact FM55 melanoma cells; assay type: cell-based, human; conditions: Experiment 3, 0.7 μM, 1 h, control = 100%
# Method: as §1, §2, §3
# [5] = molecular target: T3, IGF-1R from P6 cell extract (Homo sapiens, UniProt P08069); assay: In vitro tyrosine kinase assay: IGF-1R-catalyzed pTG substrate phosphorylation; assay type: biochemical; conditions: cell-free
# T3 construct: expressed in transfected cells; host or cells: P6 cell line (embryonic mouse fibroblasts)
# T3 sequence (P08069 31-1367): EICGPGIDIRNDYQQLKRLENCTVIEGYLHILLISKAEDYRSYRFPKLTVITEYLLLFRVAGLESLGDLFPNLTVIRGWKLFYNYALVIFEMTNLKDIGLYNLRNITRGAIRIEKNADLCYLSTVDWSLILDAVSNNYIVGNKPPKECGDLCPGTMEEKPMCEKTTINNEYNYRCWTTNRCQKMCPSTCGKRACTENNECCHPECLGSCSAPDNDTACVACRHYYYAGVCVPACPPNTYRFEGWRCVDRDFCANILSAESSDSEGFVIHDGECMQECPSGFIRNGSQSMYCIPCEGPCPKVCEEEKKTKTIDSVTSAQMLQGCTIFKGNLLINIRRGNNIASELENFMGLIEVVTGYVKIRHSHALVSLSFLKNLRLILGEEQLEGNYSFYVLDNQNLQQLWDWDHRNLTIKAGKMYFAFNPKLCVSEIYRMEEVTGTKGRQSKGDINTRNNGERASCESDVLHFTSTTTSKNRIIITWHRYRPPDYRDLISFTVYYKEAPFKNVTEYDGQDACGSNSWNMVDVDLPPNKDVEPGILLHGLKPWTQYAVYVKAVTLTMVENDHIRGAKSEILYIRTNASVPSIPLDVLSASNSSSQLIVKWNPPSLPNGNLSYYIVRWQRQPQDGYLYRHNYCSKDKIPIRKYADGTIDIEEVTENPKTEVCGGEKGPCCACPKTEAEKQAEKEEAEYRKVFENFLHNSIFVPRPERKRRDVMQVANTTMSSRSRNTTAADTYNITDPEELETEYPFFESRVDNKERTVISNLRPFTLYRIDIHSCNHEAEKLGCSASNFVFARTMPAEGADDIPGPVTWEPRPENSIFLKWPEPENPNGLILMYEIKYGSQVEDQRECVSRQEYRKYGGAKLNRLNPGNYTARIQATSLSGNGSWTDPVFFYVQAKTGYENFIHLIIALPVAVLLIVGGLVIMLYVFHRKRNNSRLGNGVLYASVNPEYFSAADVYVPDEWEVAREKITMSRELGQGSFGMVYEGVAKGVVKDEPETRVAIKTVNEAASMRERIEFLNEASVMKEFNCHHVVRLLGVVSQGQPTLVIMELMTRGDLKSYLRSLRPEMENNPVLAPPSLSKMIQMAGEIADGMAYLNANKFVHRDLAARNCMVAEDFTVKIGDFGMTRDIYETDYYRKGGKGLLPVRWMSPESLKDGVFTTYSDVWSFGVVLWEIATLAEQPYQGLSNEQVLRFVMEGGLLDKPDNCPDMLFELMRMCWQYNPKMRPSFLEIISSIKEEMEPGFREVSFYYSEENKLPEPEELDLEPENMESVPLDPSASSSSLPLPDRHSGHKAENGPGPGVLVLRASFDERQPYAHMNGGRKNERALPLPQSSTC
# Method: (§4) IGF-1R-catalyzed substrate phosphorylation of polyTyrGlu (pTG) was performed essentially as previously described [Parrizas M., et al., see above, and Blum G., et al., see above]. Immunoprecipitated IR from HepG2, IGF-1R from P6 cell extract and immunodepleted supernatant to assay non-IGF-1R tyrosine kinases. The phosphorylated polymer substrate was probed with a purified phosphotyrosine specific monoclonal antibody conjugated to horseradish peroxidase (HARP). Color was developed with HRP chromogenic substrate o-phenylenediamine dihydrochloride (OPD). The color was quantitated by spectrophotometry (BLISA reader) and reflects the relative amount of tyrosine kinase. The precipitate was immunoblotted with antibodies to IGF-1R and IR to verify the presence of the receptor. Serial dilutions were used to assay the optimal conditions with respect to the amount of IGF-1R and IR. The signal was linear for 30 minutes and was a function of IGF-1R concentration up to 75 ng/well. Briefly, 96 well plates (Immunolon, Nunc) were coated overnight at 4° C. with a mouse monoclonal antibody (LabVision) against the beta-subunit of IGF-1R at a concentration of 1 μg/ml. […]
# (§5) We isolated the receptor and determined the effects of 4,5-demethylene-deoxypodophyllotoxin on IGF-1R catalyzed substrate tyrosine phosphorylation and IGF-1R autophosphorylation in-vitro. […]
# [6] = molecular target: epidermal growth factor receptor (Homo sapiens, UniProt P00533); assay: In vitro tyrosine kinase assay: EGFR substrate phosphorylation; assay type: biochemical; conditions: cell-free; data not shown
# epidermal growth factor receptor, sequence (P00533 25-1210, species assumed): as the sequence (P00533 25-1210) above
# [7] = molecular target: T4, insulin receptor (IR from HepG2) (Homo sapiens, UniProt P06213); assay: In vitro tyrosine kinase assay: insulin receptor substrate phosphorylation; assay type: biochemical; conditions: cell-free; data not shown
# T4 construct: Immunoprecipitated IR from HepG2; endogenous in cells; host or cells: HepG2
# T4 sequence (P06213 28-1382): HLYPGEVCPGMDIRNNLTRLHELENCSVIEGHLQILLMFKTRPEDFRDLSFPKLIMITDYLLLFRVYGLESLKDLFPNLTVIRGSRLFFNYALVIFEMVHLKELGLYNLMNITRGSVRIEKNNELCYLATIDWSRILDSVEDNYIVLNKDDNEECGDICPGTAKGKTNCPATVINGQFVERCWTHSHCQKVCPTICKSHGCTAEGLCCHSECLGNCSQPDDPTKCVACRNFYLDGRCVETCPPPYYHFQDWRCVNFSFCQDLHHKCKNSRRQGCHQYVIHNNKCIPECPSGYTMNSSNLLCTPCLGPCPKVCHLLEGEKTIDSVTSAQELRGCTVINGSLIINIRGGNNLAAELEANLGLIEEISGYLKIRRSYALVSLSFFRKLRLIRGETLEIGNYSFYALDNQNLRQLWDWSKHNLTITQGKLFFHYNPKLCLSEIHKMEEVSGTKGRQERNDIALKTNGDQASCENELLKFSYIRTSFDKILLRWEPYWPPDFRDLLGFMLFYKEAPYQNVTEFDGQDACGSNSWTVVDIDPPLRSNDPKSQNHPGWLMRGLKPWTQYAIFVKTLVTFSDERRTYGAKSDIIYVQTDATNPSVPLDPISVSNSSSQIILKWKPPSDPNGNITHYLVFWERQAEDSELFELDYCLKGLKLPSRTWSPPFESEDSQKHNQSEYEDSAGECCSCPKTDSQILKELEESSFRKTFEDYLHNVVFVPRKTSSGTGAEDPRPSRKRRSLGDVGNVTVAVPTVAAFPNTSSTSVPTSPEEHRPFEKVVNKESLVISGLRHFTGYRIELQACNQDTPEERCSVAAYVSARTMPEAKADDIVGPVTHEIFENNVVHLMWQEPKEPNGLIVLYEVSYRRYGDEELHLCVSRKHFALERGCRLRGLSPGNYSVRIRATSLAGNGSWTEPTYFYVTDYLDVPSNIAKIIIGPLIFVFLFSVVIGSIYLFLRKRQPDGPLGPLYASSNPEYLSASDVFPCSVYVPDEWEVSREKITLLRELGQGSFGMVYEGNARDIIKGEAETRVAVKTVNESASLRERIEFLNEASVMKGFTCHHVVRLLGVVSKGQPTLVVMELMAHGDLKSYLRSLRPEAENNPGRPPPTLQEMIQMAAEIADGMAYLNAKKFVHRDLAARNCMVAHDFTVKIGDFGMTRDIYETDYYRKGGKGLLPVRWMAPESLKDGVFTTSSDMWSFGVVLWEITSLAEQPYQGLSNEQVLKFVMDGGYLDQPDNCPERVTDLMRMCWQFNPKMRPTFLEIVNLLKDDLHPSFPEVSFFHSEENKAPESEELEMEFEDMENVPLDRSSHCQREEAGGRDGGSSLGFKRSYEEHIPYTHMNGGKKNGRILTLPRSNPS
# Method: as §4, §5
# non-IGF-1R kinases = assay: In vitro tyrosine kinase assay: non-IGF-1R kinases (IGF-1R immunodepleted supernatant); assay type: biochemical; conditions: cell-free; kinases obtained by immunodepletion of IGF-1R; data not shown
# Method: as §4, §5
# IGF-1R [8] = molecular target: T5, IGF-1R (Homo sapiens, UniProt P08069); assay: IGF-1R tyrosine autophosphorylation, sandwich ELISA; assay type: biochemical; conditions: cell-free; stronger response by podophyllotoxin
# Method: IGF-1R tyrosine autophosphorylation was analysed by a sandwich ELISA assay. Briefly, 96-well plates (Immunolon, Nunc) were coated overnight at 4° C. with 1 μg/well of the monoclonal antibody Ab-5 (LabVision) to the IGF-1R beta subunit. The plates were blocked with 1% BSA in PBS Tween for 1 h, then 80 µg/well of total protein lysate from the P6 cell line was added. As a negative control was used total protein lysate from R-cell line. The investigated compounds were added in tyrosine kinase buffer without ATP at room temperature for 30 min, prior to kinase activation with ATP. Kinase assay was performed using the Sigma kit.
# We isolated the receptor and determined the effects of 4,5-demethylene-deoxypodophyllotoxin on IGF-1R catalyzed substrate tyrosine phosphorylation and IGF-1R autophosphorylation in-vitro. […] A stronger response was obtained by podophyllotoxin.
# Target sequence in this assay (P08069 31-1367): as the sequence (P08069 31-1367) above
# IGF-1R [9] = molecular target: T5, IGF-1R; assay: Tyrosine phosphorylation of IGF-1R in intact FM55 melanoma cells (immunoprecipitation, Western blot); assay type: cell-based; design: endogenous in cells; host or cells: FM55 human melanoma cells; conditions: 0.7 μM, 1 h; for Level of IGF-1R phosphorylation in intact cells (% OD): Experiment 1, FM55 melanoma cells, control OD = 100%; for Level of phosphorylation in intact cells (% OD), substrate IGF-1R: Experiment 3, FM55 cells, control = 100%
# Method: as §1
# Target sequence in this assay (P08069 31-1367): as above
# The isolated cells were then lyzed in 10 ml ice-cold PBSTDS containing protease inhibitors (Carlberg, M., et al., J Biol Chem 271:17453-17462, 1996). 50 μl protein A or G agarose was added in 1 ml sample and incubated for 15 min at 4° C. on an orbital shaker. After centrifugation for 10 min at 10,000 r/min at 4° C. the supernatant was saved. The protein content was determined by a dye-binding assay with a reagent purchased from Bio-Rad. Bovine serum albumin was used as a standard. 15 μl Protein G Plus agarose and 5 μl anti-IGF-1R were added. After a 3 h incubation at 4° C. on an orbital shaker the precipitate was collected by pulse centrifugation in a micro centrifuge at 14,000×g for 10 s. The supernatant was discarded and the pellet was washed 3 times with PBSTDS.
# Protein samples were solved in a 2×-sample buffer containing Laemmli buffer and 0.5% […] and boiled for 5 min at 96° C. Samples were separated by SDS-PAGE with a 4% stacking gel and 7.5% separation gel. Molecular weight markers (Bio Rad, Sweden) were run simultaneously in all experiments.
# Following SDS-PAGE the proteins were transferred overnight to nitro-cellulose membranes (Hybond, Amersham, UK) and then blocked for 1 h at room temperature in a solution of 4% skimmed milk powder and 0.02% Tween 20 in PBS, pH 7.5. Incubations with the primary antibodies were performed for 1 h at room temperature, followed by 3 washes with PBS with Tween and incubation with the second antibody for 1 h room temperature. After another 3 washes the membranes were incubated with Streptavidin-labelled horseradish peroxidase for 30 min and then detected using Amersham ECL system (Amersham, UK). The films were scanned by Fluor-S (BioRad).
# Melanoma cells (line FM55) were seeded in 6-cm dishes, at a concentration of 10,000 cells/cm2 in Minimal Essential Medium supplemented with 10% fetal calf serum (FCS). […] Phosphorylation of IGF-1R was detected by an anti-phosphotyrosine antibody using Western blotting. […] The intensities are quantified by a scanner, which measures the optical density (OD) of the signals. […]
# IGF-1R [10] = molecular target: T5, IGF-1R; assay: Effect on IGF-1R (method not given)
# isolated IGF-1R kinase = isolated IGF-1R kinase (Homo sapiens, UniProt P08069); conditions: Blum et al., Biochemistry 2000; cited from earlier work
# insulin receptor kinase = insulin receptor kinase (Homo sapiens, UniProt P06213); conditions: Blum et al., Biochemistry 2000; cited from earlier work
Compound,"Level of phosphorylation in intact cells (% OD), substrate FGFR [1] [% OD]","Level of phosphorylation in intact cells (% OD), substrate PDGFR [2] [% OD]","Level of phosphorylation in intact cells (% OD), substrate EGFR [3] [% OD]","Level of phosphorylation in intact cells (% OD), substrate IR (insulin receptor (IR)) [% OD]","Level of phosphorylation in intact cells (% OD), substrate IRS-1 [4] [% OD]",Decrease of pTG substrate phosphorylation by the IGF-1 receptor ([5]; 0.5 μM),Interference with substrate phosphorylation of epidermal growth factor receptor tyrosine kinase [6],Interference with substrate phosphorylation of insulin receptor tyrosine kinase [7],Interference with substrate phosphorylation of other non-IGF-1R kinases (non-IGF-1R kinases),Inhibition of autophosphorylation of IGF-1R in vitro (IGF-1R [8]),Level of IGF-1R phosphorylation in intact cells (% OD) (IGF-1R [9]),"Level of phosphorylation in intact cells (% OD), substrate IGF-1R (IGF-1R [9]) [% OD]",Effect on IGF-1R substrate phosphorylation [5],Effect on IGF-1R (IGF-1R [10]),IC50 (isolated IGF-1R kinase) [nM],Effect on insulin receptor kinase (insulin receptor kinase)
"COc1cc(C2c3cc(O)c(O)cc3CC3COC(=O)C32)cc(OC)c1OC (stereo not drawn) [4,5-demethylene-deoxypodophyllotoxin]",104,99,100,102,70,about 35%,failed to interfere,failed to interfere,failed to interfere,inhibited,73,65,,,,
"COc1cc([C@@H]2c3cc4c(cc3[C@H](O)[C@H]3COC(=O)[C@H]23)OCO4)cc(OC)c1OC [Podophyllotoxin, podophyllotoxin]",99,101,102,103,9,,had only effect on IGF-1R,had only effect on IGF-1R,had only effect on IGF-1R,inhibited,10,12,had only effect on IGF-1R,,,
"COc1cc(C2c3cc4c(cc3C(OC3OC5COC(c6ccccc6)OC5C(O)C3O)C3COC(=O)C23)OCO4)cc(OC)c1OC [podophyllotoxin-4,6-O-benzylidene-β-D-glucopyranoside]",,,,,,,,,,,,,,completely disappeared,,
N#C/C(=C\c1ccc(O)c(O)c1)C(=O)c1ccc(O)c(O)c1 [tyrphostin AG 538],,,,,,,,,,,,,,,400,blocked
